Test results as given in PMC10247784, “Physiological activation of human and mouse bitter taste receptors by bile acids” (Communications Biology, 2023).
“And” between values parts separate entries of the source, which are not always exact repeats. Equal entries are not always repeated.

Target: T1, human TAS2R39 (Homo sapiens, UniProt P59534)
T1 construct: expressed in transfected cells; host or cells: HEK293T-Gα16gust44
T1 sequence (P59534 1-338): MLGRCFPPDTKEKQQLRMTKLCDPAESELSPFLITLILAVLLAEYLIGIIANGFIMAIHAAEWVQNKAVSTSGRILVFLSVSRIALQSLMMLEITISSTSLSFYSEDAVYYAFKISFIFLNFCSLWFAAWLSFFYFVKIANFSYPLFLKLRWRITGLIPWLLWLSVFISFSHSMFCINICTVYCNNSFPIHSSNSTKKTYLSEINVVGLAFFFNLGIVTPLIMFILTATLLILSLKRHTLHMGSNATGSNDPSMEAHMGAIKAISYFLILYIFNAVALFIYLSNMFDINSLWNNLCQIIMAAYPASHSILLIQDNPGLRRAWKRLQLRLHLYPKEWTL
Assay: Calcium imaging assay (FLIPR), HEK293T-Gα16gust44 cells transfected with human TAS2R39
Assay type: cell-based
Conditions: for Δ F/F / Efficacy = maximal amplitude (ΔF/F) / Efficacy (maximal amplitude ΔF/F), individual data points: TAS2R39; for Efficacy = maximal amplitude (ΔF/F) / Efficacy (maximal amplitude ΔF/F), individual data points: bile acids; for Efficacy = maximal amplitude (ΔF/F): mean; for Efficacy (maximal amplitude ΔF/F), individual data points: single replicates; for Activation threshold concentration TAS2R39: lowest concentration with significantly increased fluorescence vs empty vector (p < 0.01)
Description: This set of bile acids was chosen because of their commercial availability in high purities, their diversity within the class of bile acids and their previous detection and quantitation in human blood. Stock solutions were prepared in DMSO.
As basal growth medium for the HEK293T-Gα16gust44 cell line[17],[59] served Dulbecco’s modified eagle medium (DMEM) (Thermo Fisher Scientific, Darmstadt, Germany) supplemented with 10 % fetal bovine serum (Sigma-Aldrich, Steinheim, Germany), 2 mM L-glutamine (Sigma-Aldrich, Steinheim, Germany), 100 units/ml penicillin (Sigma Aldrich, Steinheim, Germany) and 100 µg/ml streptomycin (Sigma Aldrich, Steinheim, Germany). Growth conditions were 37 °C, 5 % CO2 and saturated air-humidity[60].
HEK293T-Gα16gust44 cells were seeded on poly-D-lysine (10 µg/ml) coated 96-well plates to reach a confluence of 40-60 % the next day. For transient transfection 150 ng of plasmid DNA containing the receptor of interest and 0.3 µl lipofectamine 2000 (Thermo Fisher Scientific, Darmstadt, Germany) per well were used and transfection took place according to the manual of lipofectamine 2000. […] The empty vector DNA (mock) was transfected as negative control[14],[41].
Cells were loaded using the calcium-sensitive fluorescent dye Fluo-4-AM (Abcam, Cambridge, Great Britain) in the presence of 2.5 mM probenecid (Sigma-Aldrich, Steinheim, Germany) the day after transfection[13],[41]. 1 h after loading, cells were washed with C1 buffer using a BioTek Cell Washer, incubated in the dark for half an hour and washed again. For automated agonist application and measurement of fluorescence changes, a FLIPR^TETRA device (Molecular Devices, San José, United States) was used. Viability of cells was tested by application of 100 nM Somatostatin 14 (Bachem, Bubendorf, Switzerland)[42].
Measured data were negative control corrected by subtracting the signal of the mock-transfected cells and exported to Microsoft Excel using the FLIPR software ScreenWorks 4.2. In Microsoft Excel software, standardization of maximum fluorescence intensities to the basal fluorescence and normalization to the buffer-only control was done to calculate the relative fluorescence changes (ΔF/F).
Initial screening experiments performed in duplicate wells were confirmed by at least one replication and representative traces were selected for display. All dose-response relationships were determined by three independent experiments (biological replicates) performed in duplicates (technical replicates). Threshold concentrations, defined as lowest substance concentrations leading to statistically significant elevated fluorescence changes in receptor-transfected cells compared with empty vector-transfected cells, were determined using SigmaPlot with Student’s t-test to evaluate statistical significance (p < 0.01).

| Compound | Δ F/F (Conc. 0,01 mM) | Δ F/F (Conc. 0,1 mM) | Δ F/F (Conc. 0,03 mM) | Δ F/F (Conc. 0,3 mM) | Δ F/F (Conc. 0,001 mM) | Δ F/F (Conc. 1 mM) | Δ F/F (Conc. 0,003 mM) | Efficacy = maximal amplitude (ΔF/F) | Efficacy (maximal amplitude ΔF/F), individual data points (listed as GCA) | Activation threshold concentration TAS2R39 [µM] | Efficacy (maximal amplitude ΔF/F), individual data points (listed as CA) | Efficacy (maximal amplitude ΔF/F), individual data points (listed as TCA) |
| --- | --- | --- | --- | --- | --- | --- | --- | --- | --- | --- | --- | --- |
| C[C@H](CCC(=O)NCC(=O)O)[C@H]1CC[C@H]2[C@@H]3[C@H](O)C[C@@H]4C[C@H](O)CC[C@]4(C)[C@H]3C[C@H](O)[C@]12C [Glycocholic Acid, glycocholic acid] | 0.001299 | 0.005941 | 0.007895 | 0.02136 | 0.004486 | 0.1303 | 0.004867 | 0.1303 | 0.1116 and 0.125 and 0.1542 | 300 |  |  |
| C[C@H](CCC(=O)O)[C@H]1CC[C@H]2[C@@H]3[C@H](O)C[C@@H]4C[C@H](O)CC[C@]4(C)[C@H]3C[C@H](O)[C@]12C [Cholic Acid, cholic acid] |  |  |  |  |  |  |  | 0.2007 |  | 300 | 0.15 and 0.2304 and 0.2216 |  |
| C[C@H](CCC(=O)NCCS(=O)(=O)O)[C@H]1CC[C@H]2[C@@H]3[C@H](O)C[C@@H]4C[C@H](O)CC[C@]4(C)[C@H]3C[C@H](O)[C@]12C [Taurocholic Acid, taurocholic acid] | 0.002616 | 0.007681 | 0.00381 | 0.02945 | -0.001111 | 0.155 | 0.0008114 | 0.155 |  | 300 |  | 0.1385 and 0.1739 and 0.1528 |
